Values quoted from earlier work in patent US20150080442A1, “TRANSMUCOSAL DRUG DELIVERY SYSTEM” (PHARMACEUTICAL PRODUCTIONS INC., priority 2013, published 2015).

Legend:
[1] = pH 6.8

| SMILES | mean absolute oral bioavailability | nicotine in the free base form [1] |
| --- | --- | --- |
| CN(C)CCc1c[nH]c2ccc(C[C@H]3COC(=O)N3)cc12 [Zolmitriptan] | approximately 40% | – |
| CN1CCCC1c1cccnc1 (centres unmarked) [nicotine] | – | about 10% |
